In ChEMBL document CHEMBL1157926, “Synthesis and biological evaluation of combretastatin analogs as cell cycle inhibitors of the G1 to S transition in Saccharomyces cerevisiae” (2010):
Activity calls are given as the source filed them. The calls are words filed in the database; no cut-off is given here.

Columns and labels:
[1] = system: Saccharomyces cerevisiae; experiment: Growth inhibition of Saccharomyces cerevisiae BY4741 at 150 uM up to 180 mins; assay type: functional, organism-based
[2] = system: Saccharomyces cerevisiae; experiment: Growth inhibition of Saccharomyces cerevisiae BY4741 at 300 uM up to 180 mins; assay type: functional, organism-based
[3] = system: Saccharomyces cerevisiae; experiment: Growth inhibition of Saccharomyces cerevisiae BY4741 at 450 uM up to 180 mins; assay type: functional, organism-based
[4] = system: Saccharomyces cerevisiae; experiment: Induction of log phase growth arrest in Saccharomyces cerevisiae BY4741; assay type: functional, organism-based
[5] = system: Saccharomyces cerevisiae; experiment: Reduction of budding index in Saccharomyces cerevisiae BY4741 at 450 uM relative to control; assay type: functional; design: scale not given: the % may be the effect or the level left
[6] = system: Saccharomyces cerevisiae; experiment: Cell cycle arrest in Saccharomyces cerevisiae BY4741 assessed as accumulation of cells at G1 phase at 450 uM after 3 hrs by FACS analysis; assay type: functional
[7] = system: Saccharomyces cerevisiae; experiment: Induction of G1 phase arrest in Saccharomyces cerevisiae expressing TAP-tagged Clb5 assessed as down-regulation of Clb5 level at 450 uM after 3 hrs by Western blot analysis; assay type: functional, organism-based
[8] = system: Saccharomyces cerevisiae; experiment: Induction of G1 phase arrest in Saccharomyces cerevisiae expressing TAP-tagged Cln1 assessed as down-regulation of Cln1 level at 450 uM after 3 hrs by Western blot analysis; assay type: functional, organism-based
[9] = system: Saccharomyces cerevisiae; experiment: Induction of G1 phase arrest in Saccharomyces cerevisiae expressing TAP-tagged Cln2 assessed as down-regulation of Cln2 level at 450 uM after 3 hrs by Western blot analysis; assay type: functional, organism-based
[10] = system: Saccharomyces cerevisiae; experiment: Induction of G1 phase arrest in Saccharomyces cerevisiae expressing TAP-tagged Sic1 assessed as down-regulation of Sic1 level at 450 uM after 3 hrs by Western blot analysis; assay type: functional, organism-based
[11] = system: Saccharomyces cerevisiae; experiment: Induction of G1 phase arrest in alpha factor treated Saccharomyces cerevisiae expressing TAP-tagged Clb5 assessed as inhibition of Clb5 expression at 450 uM after 3 hrs by FACS analysis; assay type: functional, organism-based
[12] = system: Saccharomyces cerevisiae; experiment: Induction of snf1 phosphorylation at T210 in Saccharomyces cerevisiae expressing Snf1-9myc at 450 uM after 3 hrs by Western blot analysis; assay type: functional, organism-based
[13] = system: Saccharomyces cerevisiae; experiment: Cell cycle arrest in Saccharomyces cerevisiae BY4741 assessed as accumulation of cells at metaphase with post synthetic DNA content by FACS analysis; assay type: functional, organism-based
[14] = system: Saccharomyces cerevisiae; experiment: Cell cycle arrest in Saccharomyces cerevisiae BY4741 assessed as accumulation of cells at metaphase with short spindles by FACS analysis; assay type: functional, organism-based

Structure (SMILES): COc1ccc(/C=C/c2cc(OC)c(OC)c(OC)c2)c(O)c1O
- growth inhibition (GI) [1]: inactive
- growth inhibition (GI) [2]: inactive
- growth inhibition (GI) [3]: inactive

Structure (SMILES): COc1ccc(/C=C/c2cc(OC)c(OC)c(OC)c2)cc1[N+](=O)[O-]
- growth inhibition (GI) [1]: inactive
- growth inhibition (GI) [2]: inactive
- growth inhibition (GI) [3]: inactive

Structure (SMILES): COc1ccc(/C=C\c2cc(OC)c(OC)c(OC)c2)cc1B(O)O
- Activity [4]: Dose-dependent effect
- Activity [5]: 42%
- Activity [6]: 50%
- Activity [7]: Active
- Activity [8]: inactive
- Activity [9]: inactive
- Activity [10]: inactive
- Activity [11]: Active
- Activity [12]: Active

Structure (SMILES): COc1ccc(/C=C/c2cc(OC)c(OC)c(OC)c2)cc1F
- growth inhibition (GI) [1]: inactive
- growth inhibition (GI) [2]: inactive
- growth inhibition (GI) [3]: inactive

Structure (SMILES): COc1ccc(/C=C\c2cc(OC)c(OC)c(OC)c2)cc1N
- growth inhibition (GI) [1]: inactive
- growth inhibition (GI) [2]: inactive
- growth inhibition (GI) [3]: inactive

Structure (SMILES): COc1ccc(/C=C\c2cc(OC)c(OC)c(OC)c2)cc1O [COMBRETASTATIN A4]
- Activity [4]: Dose-dependent effect
- Activity [5]: 42%
- Activity [6]: 50%
- Activity [7]: Active
- Activity [8]: inactive
- Activity [9]: inactive
- Activity [10]: inactive
- Activity [11]: Active
- Activity [12]: Active

Structure (SMILES): COc1ccc(/C=C/c2cc(OC)c(OC)c(OC)c2)cc1B(O)O
- growth inhibition (GI) [1]: inactive
- growth inhibition (GI) [2]: inactive
- growth inhibition (GI) [3]: inactive

Structure (SMILES): COc1ccc(/C=C\c2cc(OC)c(OC)c(OC)c2)cc1F
- growth inhibition (GI) [1]: inactive
- growth inhibition (GI) [2]: inactive
- growth inhibition (GI) [3]: inactive

Structure (SMILES): COc1ccc(/C=C/c2cc(OC)c(OC)c(OC)c2)cc1O
- growth inhibition (GI) [1]: inactive
- growth inhibition (GI) [2]: inactive
- growth inhibition (GI) [3]: inactive

Structure (SMILES): COc1ccc(/C=C\c2cc(OC)c(OC)c(OC)c2)c(O)c1O
- Activity [4]: Dose-dependent effect
- Activity [13]: Active
- Activity [14]: Active

Structure (SMILES): COc1ccc(/C=C/c2cc(OC)c(OC)c(OC)c2)cc1N
- growth inhibition (GI) [1]: inactive
- growth inhibition (GI) [2]: inactive
- growth inhibition (GI) [3]: inactive

Structure (SMILES): COc1ccc(/C=C\c2cc(OC)c(OC)c(OC)c2)cc1[N+](=O)[O-]
- growth inhibition (GI) [1]: inactive
- growth inhibition (GI) [2]: inactive
- growth inhibition (GI) [3]: inactive
